# Biological target: T1, ERR1 (also known as ERR-α or ERR-1) (Homo sapiens, UniProt P11474)
# T1 construct: the ^6His-tagged-ERR1 LBD
# T1 sequence (P11474 193-421 limits assumed): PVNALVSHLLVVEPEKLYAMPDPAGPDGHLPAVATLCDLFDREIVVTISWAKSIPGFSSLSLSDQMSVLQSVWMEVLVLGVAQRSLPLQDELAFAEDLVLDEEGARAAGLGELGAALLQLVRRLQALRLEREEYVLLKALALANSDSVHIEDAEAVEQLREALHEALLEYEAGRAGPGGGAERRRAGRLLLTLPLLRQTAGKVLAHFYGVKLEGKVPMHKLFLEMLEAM
# Test: TR-FRET assay: disruption of co-activator peptide binding to ERR1 LBD
# Type: biochemical
# Settings: 6His-tagged ERR1 LBD 6 nM, GST-SRC-2 peptide 6 nM, 25° C., 4-18 hours; average of 3 independent experiments
# Description: Time-Resolved Fluorescence Resonance Energy Transfer (TR-FRET) experiments were performed to examine the functional response of ERR1 (also known as ERR-α or ERR-1) ligands. The TR-FRET assay described herein relied on the conformation of ERR1 for binding to a co-activator peptide: when a test compound binds to ERR1 and alters its conformation, it can disrupt the binding of the co-activator peptide. The components of this homogeneous secondary assay included: the ^6His-tagged-ERR1 LBD, a GST-labeled-hSRC2 co-activator polypeptide and a fluorescent donor/acceptor pair from CIS bio international htrf/bioassays (Bedford, Mass.) using both an α-GST Europium Cryptate (Eu) label and an α^6His-XL665 (allophycocyanin) fluorophore.
# For TR-FRET measurements, the reaction was buffered in 25 mM Tris pH 8, 2.5 mM Hepes, 20 mM KCl, 1 mM DTT, and 0.05 mg/mL BSA (-lipids). […] Reactions were allowed to reach equilibrium at 25° C. for 4-18 hours before collecting data on the Analyst from LJL Biosystems (Molecular Devices Sunnyvale, Calif.). […] Dose response curves were fitted using a hyperbolic equation and the data reported is the average of 3 independent experiments.
row,Structure (SMILES),EC50 [nM]
1,"COc1cc(/C=C2\SC(NCCn3cccn3)=NC2=O)ccc1Oc1ccc(C#N)cc1C(F)(F)F [Example 30, 4-{2-Methoxy-4-[4-oxo-2-(2-pyrazol-1-yl-ethylamino)-4H-thiazol-5-ylidenemethyl]-phenoxy}-3-trifluoromethyl-benzonitrile]",47
2,"N#Cc1ccc(Oc2ccc(/C=C3\SC(NC4CCN(CCO)CC4)=NC3=O)cc2F)c(C(F)(F)F)c1 [Example 112, 4-(2-Fluoro-4-{2-[1-(2-hydroxy-ethyl)-piperidin-4-ylamino]-4-oxo-4H-thiazol-5-ylidenemethyl}-phenoxy)-3-trifluoromethyl-benzonitrile]",26
3,"COc1cc(/C=C2\SC(NC3CCNC3)=NC2=O)ccc1Oc1ccc(C#N)cc1C(F)(F)F (stereo not shown) [Compound 13, 4-{2-Methoxy-4-[4-oxo-2-(pyrrolidin-3-ylamino)-4H-thiazol-5-ylidenemethyl]-phenoxy}-3-trifluoromethyl-benzonitrile]",34
4,"N#Cc1ccc(Oc2ccc(/C=C3\SC(N4CCOCC4)=NC3=O)cc2F)c(C(F)(F)F)c1 [Compound 6, 4-[2-Fluoro-4-(2-morpholin-4-yl-4-oxo-4H-thiazol-5-ylidenemethyl)-phenoxy]-3-trifluoromethyl-benzonitrile]",50
5,"COc1cc(/C=C2\SC(N)=NC2=O)ccc1Oc1ccc(C#N)cc1Cl [Compound 2, 4-[4-(2-Amino-4-oxo-4H-thiazol-5-ylidenemethyl)-2-methoxy-phenoxy]-3-chloro-benzonitrile]",210
6,"COc1cc(/C=C2\SC(N3CCCC(O)C3)=NC2=O)ccc1Oc1ccc(C#N)cc1C(F)(F)F (stereo not shown) [Example 102, 4-{4-[2-(3-Hydroxy-piperidin-1-yl)-4-oxo-4H-thiazol-5-ylidenemethyl]-2-methoxy-phenoxy}-3-trifluoromethyl-benzonitrile]",29
7,"COc1cc(/C=C2\SC(N3CCOCC3)=NC2=O)ccc1Oc1ccc(C#N)cc1C(F)(F)F [Compound 5, 4-[2-Methoxy-4-(2-morpholin-4-yl-4-oxo-4H-thiazol-5-ylidenemethyl)-phenoxy]-3-trifluoromethyl-benzonitrile]",20
8,"COc1cc(/C=C2\SC(NCc3ccsc3)=NC2=O)ccc1Oc1ccc(C#N)cc1C(F)(F)F [Example 89, 4-(2-Methoxy-4-{4-oxo-2-[(thiophen-3-ylmethyl)-amino]-4H-thiazol-5-ylidenemethyl}-phenoxy)-3-trifluoromethyl-benzonitrile]",25
9,"COc1cc(/C=C2\SC(N(C)OC)=NC2=O)ccc1Oc1ccc(C#N)cc1C(F)(F)F [Example 75, 4-{2-Methoxy-4-[2-(methoxy-methyl-amino)-4-oxo-4H-thiazol-5-ylidenemethyl]-phenoxy}-3-trifluoromethyl-benzonitrile]",32
10,"COc1cc(/C=C2\SC(NCc3cc(F)cc(F)c3)=NC2=O)ccc1Oc1ccc(C#N)cc1C(F)(F)F [Example 85, 4-{4-[2-(3,5-Difluoro-benzylamino)-4-oxo-4H-thiazol-5-ylidenemethyl]-2-methoxy-phenoxy}-3-trifluoromethyl-benzonitrile]",57
11,"COC(=O)C1CCN(C2=NC(=O)/C(=C/c3ccc(Oc4ccc(C#N)cc4C(F)(F)F)c(OC)c3)S2)CC1 [Example 79, 1-{5-[4-(4-Cyano-2-trifluoromethyl-phenoxy)-3-methoxy-benzylidene]-4-oxo-4,5-dihydro-thiazol-2-yl}-piperidine-4-carboxylic acid methyl ester]",25
12,"CCOc1cc(/C=C2\SC(N3CCNC(=O)C3)=NC2=O)ccc1Oc1ccc(C#N)cc1C(F)(F)F [Example 57, 4-{2-Ethoxy-4-[4-oxo-2-(3-oxo-piperazin-1-yl)-4H-thiazol-5-ylidenemethyl]-phenoxy}-3-trifluoromethyl-benzonitrile]",39

# Molecules with a lower EC50, results first:
row,EC50 [nM],Structure (SMILES)
1,18,"COc1cc(/C=C2\SC(NC3CCOCC3)=NC2=O)ccc1Oc1ccc(C#N)cc1C(F)(F)F [Compound 15, 4-{2-Methoxy-4-[4-oxo-2-(tetrahydro-pyran-4-ylamino)-4H-thiazol-5-ylidenemethyl]-phenoxy}-3-trifluoromethyl-benzonitrile]"
2,16,"CNC1=NC(=O)/C(=C/c2ccc(Oc3ccc(C#N)cc3C(F)(F)F)c(OC)c2)S1 [Example 77, 4-[2-Methoxy-4-(2-methylamino-4-oxo-4H-thiazol-5-ylidenemethyl)-phenoxy]-3-trifluoromethyl-benzonitrile]"
3,6,"COc1cc(/C=C2\SC(NCC(F)F)=NC2=O)ccc1Oc1ccc(C#N)cc1C(F)(F)F [Example 92, 4-{4-[2-(2,2-Difluoro-ethylamino)-4-oxo-4H-thiazol-5-ylidenemethyl]-2-methoxy-phenoxy}-3-trifluoromethyl-benzonitrile]"
4,15,"COc1cc(/C=C2\SC(NCCN3CCOCC3)=NC2=O)ccc1Oc1ccc(C#N)cc1C(F)(F)F [Example 33, 4-{2-Methoxy-4-[2-(2-morpholin-4-yl-ethylamino)-4-oxo-4H-thiazol-5-ylidenemethyl]-phenoxy}-3-trifluoromethyl-benzonitrile]"
5,18,"N#Cc1ccc(Oc2ccc(/C=C3\SC(N)=NC3=O)cc2F)c2ccccc12 [Compound 4, 4-[2-Fluoro-4-(2-imino-4-oxo-thiazolidin-5-ylidenemethyl)-phenoxy]-naphthalene-1-carbonitrile]"
6,13,"COc1cc(/C=C2\SC(NC3CCN(C)CC3)=NC2=O)ccc1Oc1ccc(C#N)cc1C(F)(F)F [Compound 14, 4-{2-Methoxy-4-[2-(1-methyl-piperidin-4-ylamino)-4-oxo-4H-thiazol-5-ylidenemethyl]-phenoxy}-3-trifluoromethyl-benzonitrile]"
7,13,"COc1cc(/C=C2\SC(N3CC[C@@H](F)C3)=NC2=O)ccc1Oc1ccc(C#N)cc1C(F)(F)F [Example 90, 4-{4-[2-(3-Fluoro-pyrrolidin-1-yl)-4-oxo-4H-thiazol-5-ylidenemethyl]-2-methoxy-phenoxy}-3-trifluoromethyl-benzonitrile]"
8,4,"O=C1CN(C2=NC(=O)/C(=C/c3ccc(Oc4ccc(Cl)cc4C(F)(F)F)c(F)c3)S2)CCN1 [Example 66, 4-{5-[4-(4-Chloro-2-trifluoromethyl-phenoxy)-3-fluoro-benzylidene]-4-oxo-4,5-dihydro-thiazol-2-yl}-piperazin-2-one]"
9,9,"COc1cc(/C=C2\SC(N3CCNC(=O)C3)=NC2=O)ccc1Oc1ccc(C#N)cc1C(F)(F)F [Compound 21, 4-{2-Methoxy-4-[4-oxo-2-(3-oxo-piperazin-1-yl)-4H-thiazol-5-ylidenemethyl]-phenoxy}-3-trifluoromethyl-benzonitrile]"
10,19,"N#Cc1ccc(Oc2ccc(/C=C3\SC(N4CCNC(=O)C4)=NC3=O)cc2F)c(C(F)(F)F)c1 [Example 47, 4-{2-Fluoro-4-[4-oxo-2-(3-oxo-piperazin-1-yl)-4H-thiazol-5-ylidenemethyl]-phenoxy}-3-trifluoromethyl-benzonitrile]"
11,19,"COC(=O)[C@H](CO)NC1=NC(=O)/C(=C/c2ccc(Oc3ccc(C#N)cc3C(F)(F)F)c(OC)c2)S1 [Example 68, 2-{5-[4-(4-Cyano-2-trifluoromethyl-phenoxy)-3-methoxy-benzylidene]-4-oxo-4,5-dihydro-thiazol-2-ylamino}-3-hydroxy-propionic acid methyl ester]"
12,14,"CN1CCN(C2=NC(=O)/C(=C/c3ccc(Oc4ccc(C#N)cc4C(F)(F)F)c(F)c3)S2)CC1 [Compound 8, 4-{2-Fluoro-4-[2-(4-methyl-piperazin-1-yl)-4-oxo-4H-thiazol-5-ylidenemethyl]-phenoxy}-3-trifluoromethyl-benzonitrile]"
13,17,"COc1cc(/C=C2\SC(N(C)C)=NC2=O)ccc1Oc1ccc(C#N)cc1C(F)(F)F [Example 81, 4-[4-(2-Dimethylamino-4-oxo-4H-thiazol-5-ylidenemethyl)-2-methoxy-phenoxy]-3-trifluoromethyl-benzonitrile]"
14,11,"COc1cc(/C=C2\SC(NCCCN3CCNC(=O)C3)=NC2=O)ccc1Oc1ccc(C#N)cc1C(F)(F)F [Example 101, 4-(2-Methoxy-4-{4-oxo-2-[3-(3-oxo-piperazin-1-yl)-propylamino]-4H-thiazol-5-ylidenemethyl}-phenoxy)-3-trifluoromethyl-benzonitrile]"
15,9,"COc1cc(/C=C2\SC(N(C)CC(O)CO)=NC2=O)ccc1Oc1ccc(C#N)cc1C(F)(F)F (stereo not shown) [Compound 23, 4-(4-{2-[(2,3-Dihydroxy-propyl)-methyl-amino]-4-oxo-4H-thiazol-5-ylidenemethyl}-2-methoxy-phenoxy)-3-trifluoromethyl-benzonitrile]"
16,16,"COc1cc(/C=C2\SC(NCc3ccncc3)=NC2=O)ccc1Oc1ccc(C#N)cc1C(F)(F)F [Compound 24, 4-(2-Methoxy-4-{4-oxo-2-[(pyridin-4-ylmethyl)-amino]-4H-thiazol-5-ylidenemethyl}-phenoxy)-3-trifluoromethyl-benzonitrile]"

# From patent US8580832B2, “Substituted phenoxy aminothiazolones as estrogen related receptor-α modulators” (Janssen Pharmaceutica N.V., priority 2007, dated 2013)
